The text below walks through data of US20120264611A1, “Pesticide Preparations Containing Derivatives Of Pyrrolidone-4-Carboxylic Acid” (CLARIANT FINANCE (BVI) LIMITED, priority 2009, published 2012).

Series [1] concerns Wild oats (Avena fatua, AVEFA). Put plainly: Increase of the biological activity of glyphosate by adjuvants, greenhouse trial (tank mix method). Format: in vivo. Particulars: 21 days. From the text:
Here, 50% strength solutions are used. In the case of compound 1, triethanolamine is additionally added to dissolve the acid.
By mixing these tank mix solutions with a commercial aqueous solution of glyphosate isopropylammonium (comprising 62% by weight of the active compound glyphosate IPA salt; IPA: isopropylammonium) and further addition of water, a preparation according to the invention is formed. The ratio of glyphosate (based on the acid equivalent) to adjuvant corresponds to that which is also found in commercially available glyphosate formulations.
For easier monitoring of the adjuvant effects, reduced doses of glyphosate are used; the application rate is 135.2 g a.e./ha glyphosate IPA salt (corresponding to 4.0 mmol or 0.68 g a.e./l at a liquid volume of 200 l/ha). The abbreviation “a.e.” means “acid equivalent”.
The spray solutions comprise the following concentrations of adjuvant: 0.0141% (v/v).
Wild oats (Avena fatua, AVEFA) are cultivated in a greenhouse under 14 hours of light irradiation at a temperature of 18/12 (±0.5)° C. (day/night) and a relative atmospheric humidity of 70/80 (±5) % (day/night). Light is introduced via high-pressure mercury lamps and fluorescent tubes, resulting in a power of 70 W/m^2 (PAR; PAR: photosynthetically active radiation (400-700 nm)) on the leaf level. The plants are cultivated in plastic pots having a diameter of 11 cm, filled with a mixture of sand and soil (Soil No. 12, Colent b.v., Lent, the Netherlands) in a volume ratio of sand:soil=1:2.
The pots are placed on a subirrigation mat which is moistened daily with a nutrient solution of medium strength. After emergence, the AVEFA seedlings are divided into six plants per pot for the activity tests.
The spray solutions are used to carry out greenhouse trials. The effect of the adjuvants on the efficacy of glyphosate is tested.
The spray solutions are applied to the plants using an air pressure-operated laboratory sprayer, such that an application rate of 200 l/ha results.
Wild oats (AVEFA) are treated once they have reached the 2-3 leaf stage.
The efficacy of the herbicide is assessed after 21 days. To this end, the mass of the remaining above-ground plant parts (fresh weight (FW) in gram) is determined. This is shown in table 3, together with the calculated relative residual amount, compared to the untreated plant (in % by weight).

Series [2] concerns tomato plants (cv. Astona F1). As to the kind of experiment: Determination of phytotoxicity on tomato plants (auxiliaries sprayed without pesticide). Format: in vivo. On the procedure:
The phytotoxicity is determined on tomato plants (cv. Astona F1), a species which, as is known, is sensitive to phytotoxic substances taken up via the leaf surface (“Phototoxicity of different classes of adjuvants”, H. de Ruiter, et al., Proceedings Fifth International Symposium on Adjuvants for Agrochemicals, 1998, Ed. P. McMullan, pp. 204-209).
Tomato plants (cv. Astona F1) are cultivated in a greenhouse under 14-hour light irradiation at a temperature of 18/12 (±0.5)° C. (day/night) and a relative atmospheric humidity of 70/80 (±5) % (day/night). 12 days after germination, the seedlings are transplanted into plastic pots having a diameter of 11 cm (one plant per pot) filled with a mixture of sand and soil (Soil No. 12, Colent b.v., Lent, the Netherlands) in a volume ratio of sand:soil=1:2.
The pots are placed on a subirrigation mat which was moistened daily with a nutrient solution of medium strength.
28 days after sowing, the plants were treated at the 4-leaf stage, each plant having a height of 15-17 cm. The auxiliary content of the spray solution was 0.5% (v/v or % by volume).
The spray solutions are applied to the plants using an air pressure-operated laboratory sprayer such that the resulting application rate is 200 l/ha.
The treated plants are scored visually after 2 and 8 days (DAT; DAT: days after treatment) and evaluated using a qualitative scale (1 to 5). Here, 1=no discoloration or necrosis of the leaves to 5=complete necrosis of the treated leaf surface. Moreover, the above-ground plant mass is determined after 8 days (fresh weight). In each case, the average is calculated, based on the number of treated plants.

`O=C(O)CNCP(=O)(O)O` [Glyphosate, no adjuvant added, glyphosate isopropylammonium]: the “Test 1, fresh weight of remaining above-ground plant parts” value in series [1] (glyphosate IPA salt 135.2 g a.e./ha, adjuvant 0.0141% (v/v), 200 l/ha, untreated 11.26) came to 9.63 g FW. Further, the “Mean of tests 1 and 2” value in series [1] (glyphosate IPA salt 135.2 g a.e./ha, adjuvant 0.0141% (v/v), 200 l/ha, untreated 12.97) was 11.54 g FW. Also, the “Test 2, fresh weight of remaining above-ground plant parts” value in series [1] (glyphosate IPA salt 135.2 g a.e./ha, adjuvant 0.0141% (v/v), 200 l/ha, untreated 14.67) is 13.45 g FW. Further, in series [1] (calculated relative residual amount compared to the untreated plant (100)), the Residual amount was 89 % by weight.
Turning to `CCCCCCCC/C=C\CCCCCCCCN1CC(C(=O)O)CC1=O` (stereo not drawn) [Compound 1, N-oleyl-2-pyrrolidone-4-carboxylic acid], the “Visual evaluation (DAT 2)” value in series [2] (2 days after treatment, qualitative scale 1 (no discoloration or necrosis of the leaves) to 5 (complete necrosis of treated leaf surface), average, auxiliary 0.5% (v/v), 200 l/ha, no pesticide) is recorded as 1.1. In addition, the “Visual evaluation (DAT 8)” value in series [2] (8 days after treatment, qualitative scale 1 (no discoloration or necrosis of the leaves) to 5 (complete necrosis of treated leaf surface), average, auxiliary 0.5% (v/v), 200 l/ha, no pesticide) was determined as 1.5. This compound also registered a Fresh weight in series [2] (above-ground plant mass after 8 days, average, auxiliary 0.5% (v/v), 200 l/ha, untreated 8.6 g) of 8.6 g. Moreover, the “Mass of the plants formed compared to the untreated plant (in words)” value in series [2] (summary of table 2, after 8 days) was “not reduced”. Further, the “Phytotoxic reaction of the tomato plants (in words)” value in series [2] (summary of table 2, auxiliary 0.5% (v/v)) is “at most minimal signs of a phytotoxic reaction”.
